In ChEMBL document CHEMBL1148689, “Isolation of new phenylacetylingol derivatives that reactivate HIV-1 latency and a novel spirotriterpenoid from Euphorbia officinarum latex” (2007):
Activity calls are given as the source filed them. No cut-off for these calls is given here.

Assays:
Jurkat [1] = assay: Induction of HIV-LTR transactivation assessed by GFP expression in Jurkat cells at 10 ng/ml after 36 hrs by flow cytometry; type: cell-based; settings: Human immunodeficiency virus
Jurkat [2] = assay: Induction of HIV-LTR transactivation assessed by GFP expression in Jurkat cells at 25 uM after 36 hrs by flow cytometry; type: cell-based; settings: Human immunodeficiency virus
Jurkat [3] = assay: Cell cycle arrest in human Jurkat cells assessed as accumulation at sub-G0 phase at 10 uM after 36 hrs by flow cytometry; type: functional
Jurkat [4] = assay: Cell cycle arrest in human Jurkat cells assessed as accumulation at sub-G0 phase at 50 uM after 36 hrs by flow cytometry; type: functional
Jurkat [5] = assay: Cell cycle arrest in human Jurkat cells assessed as accumulation at G0/G1 phase at 10 uM after 36 hrs by flow cytometry; type: functional
Jurkat [6] = assay: Cell cycle arrest in human Jurkat cells assessed as accumulation at G0/G1 phase at 50 uM after 36 hrs by flow cytometry; type: functional
Jurkat [7] = assay: Cell cycle arrest in human Jurkat cells assessed as accumulation at S phase at 10 uM after 36 hrs by flow cytometry; type: functional
Jurkat [8] = assay: Cell cycle arrest in human Jurkat cells assessed as accumulation at S phase at 50 uM after 36 hrs by flow cytometry; type: functional
Jurkat [9] = assay: Cell cycle arrest in human Jurkat cells assessed as accumulation at G2/M phase at 10 uM after 36 hrs by flow cytometry; type: functional
Jurkat [10] = assay: Cell cycle arrest in human Jurkat cells assessed as accumulation at G2/M phase at 50 uM after 36 hrs by flow cytometry; type: functional
Jurkat [11] = assay: Induction of HIV-LTR transactivation assessed by GFP expression in Jurkat cells at 10 uM after 36 hrs by flow cytometry; type: cell-based; settings: Human immunodeficiency virus
Jurkat [12] = assay: Induction of HIV-LTR transactivation assessed by GFP expression in Jurkat cells at 50 uM after 36 hrs by flow cytometry; type: cell-based; settings: Human immunodeficiency virus

Row | Structure (SMILES) | Activity (Jurkat [1]) [%] | Activity (Jurkat [2]) | Activity (Jurkat [3]) [%] | Activity (Jurkat [4]) [%] | Activity (Jurkat [5]) [%] | Activity (Jurkat [6]) [%] | Activity (Jurkat [7]) [%] | Activity (Jurkat [8]) [%] | Activity (Jurkat [9]) [%] | Activity (Jurkat [10]) [%] | Activity (Jurkat [11]) | Activity (Jurkat [12])
1 | CCCCCCCCCCCCCC(=O)O[C@@H]1[C@@H](C)[C@@]2(O)[C@@H](C=C(CO)C[C@]3(O)C(=O)C(C)=C[C@@H]23)[C@@H]2C(C)(C)[C@]12OC(C)=O | 97.3 |  |  |  |  |  |  |  |  |  |  | 
2 | COc1ccc(CC(=O)O[C@H]2[C@@H](C)C[C@@]34O[C@@]23/C=C(\C)C(OC(C)=O)[C@H](OC(C)=O)[C@H]2[C@@H]([C@@H](OC(C)=O)[C@@H](C)C4=O)C2(C)C)cc1 (some centres undefined) |  | inactive | 1.59 | 1.95 | 60.9 | 61.5 | 21 | 21.7 | 16.4 | 14.7 | inactive | inactive
3 | CO[C@H]1C(OC(C)=O)/C(C)=C/[C@@]23O[C@@]2(C[C@H](C)[C@@H]3OC(=O)Cc2ccccc2)C(=O)[C@H](C)[C@H](OC(C)=O)[C@@H]2[C@H]1C2(C)C (some centres undefined) |  | 66% | 2.34 | 3.97 | 77.8 | 81.4 | 9.01 | 5.31 | 10.8 | 9.22 | 25.5% | 83.5%
4 | CC(=O)OC1/C(C)=C/[C@@]23O[C@@]2(C[C@H](C)[C@@H]3OC(=O)Cc2ccccc2)C(=O)[C@H](C)[C@H](OC(C)=O)[C@@H]2[C@H]([C@H]1OC(C)=O)C2(C)C (some centres undefined) |  | inactive | 1.52 | 1.38 | 61.5 | 66.2 | 20.9 | 18.7 | 15.9 | 13.4 | inactive | inactive
